We go through 7 molecules from US12410166B2, “Sulfonylamidine substituted compounds and their use as beta-lactamase inhibitors” (NINGXIA ACADEMY OF AGRICULTURE AND FORESTRY SCIENCES, priority 2021, dated 2025).

Like-named read-outs stand apart in the source and are kept apart here.

What all share (assay): MIC by broth microdilution (antibacterial and synergistic activity)
Assay type in all cases: cell-based
On the technique in general: In broth dilution the organism is exposed to a series of concentrations in liquid medium.

Assay [1] concerns A. baumannii 19606 (strain 8, OXA-24). The conditions noted are these: for MIC: Acinetobacter baumannii, read-out: Antibacterial activity, MIC, inhibitor Alone. Here is the method:
(§1) Compounds of the present invention alone, avibactam (AVI) alone, relebactam (REL) alone, meropenem (MER) alone, imipenem (IMI) alone, and as a combination of compounds of the present invention, or avibactam or relebactam with test antibiotic (meropenem or imipenem) was tested for antimicrobial activity by determining minimum inhibitory concentration (MIC, mg/L) using the broth microdilution method according to the guidelines of the Clinical Laboratories and Standards Institute (“Methods for Dilution Antimicrobial Susceptibility Tests for Bacterial that Grow Aerobically”, Approved standard, 7th ed., Clinical and Laboratories Standards Institute (CLSI) Document M7-A8, Wayne, Pa., USA, 2009). Meropenem or imipenem as a test antibiotic compound was dissolved in DMSO, and then diluted in microbial growth medium (Mueller-Hinton Broth II, cation adjusted) resulting in a final concentration range of 0.031-64 mg/L in serial two-fold dilution. In all cases the final DMSO concentration was less than 0.5%. Bacteria were added to 96-well microtitre plates containing the serial two-fold dilutions of the compounds; the final cell density was approximately 5×10^5 colony forming units/mL (CFU/mL). Plates were incubated at 37° C. for 18-24 hours and read visually. The MIC, i.e. the lowest concentration of the test compound that inhibited visible growth of the bacteria, was recorded. The same assay conditions were used when the compounds of present invention alone, avibactam or relebactam alone (as a control), and as a combination of the present invention each compound, or avibactam or relebactam with test meropenem or imipenem antibiotic compound was tested for minimum inhibitory concentration (MIC, mg/L). While test meropenem or imipenem was serially diluted as described above, a constant concentration of avibactam, or relebactam or the present invention each compound of 4 mg/L was used.
(§2) Bacterial strains that were used to evaluate the antimicrobial activity using the MIC determination included but were not limited to E. coli clinical isolate (strain 1, TEM-1), E. coli 8739 (strain 2, CTX-M15), K. pneumoniae clinical isolate (strain 3, SHV-1), K. pneumoniae 700603 (strain 4, KPC-3, TEM-1), E. cloacae clinical isolate (strain 5, P99), E. cloacae 700323 (strain 6, AmpC), A. baumannii clinical isolate (strain 7, OXA-23, OXA-40), A. baumannii 19606 (strain 8, OXA-24), P. aeruginosa clinical isolate (strain 9, KPC-2), P. aeruginosa 9027 (strain 10, AmpC).

For assay [2], the system named is A. baumannii clinical isolate (strain 7, OXA-23, OXA-40). The following applies: for MIC: Acinetobacter baumannii, read-out: Antibacterial activity, MIC, inhibitor Alone. As for the experimental part: as §1, §2
In assay [3] the test system is E. cloacae 700323 (strain 6, AmpC). The conditions noted are these: for MIC: Enterobacter cloacae, read-out: Antibacterial activity, MIC, inhibitor Alone. Here is the method: as §1, §2
For assay [4], the system named is E. cloacae clinical isolate (strain 5, P99). The conditions noted are these: for MIC: Enterobacter cloacae, read-out: Antibacterial activity, MIC, inhibitor Alone. Here is the method: as §1, §2
For assay [5], the system named is E. coli 8739 (strain 2, CTX-M15). The following applies: for MIC: Escherichia coli, read-out: Antibacterial activity, MIC, inhibitor Alone. As for the experimental part: as §1, §2
In assay [6] the test system is E. coli clinical isolate (strain 1, TEM-1). The conditions noted are these: for MIC: Escherichia coli, read-out: Antibacterial activity, MIC, inhibitor Alone. As for the experimental part: as §1, §2
In assay [7] the test system is K. pneumoniae 700603 (strain 4, KPC-3, TEM-1). The conditions noted are these: for MIC: Klebsiella pneumoniae, read-out: Antibacterial activity, MIC, inhibitor Alone. As for the experimental part: as §1, §2
The test system of assay [8] is K. pneumoniae clinical isolate (strain 3, SHV-1). The following applies: for MIC: Klebsiella pneumoniae, read-out: Antibacterial activity, MIC, inhibitor Alone. As for the experimental part: as §1, §2
In assay [9] the test system is P. aeruginosa 9027 (strain 10, AmpC). The conditions noted are these: for MIC: Pseudomonas aeruginosa, read-out: Antibacterial activity, MIC, inhibitor Alone. Here is the method:
as §1, §2

Assay [10] deals with P. aeruginosa clinical isolate (strain 9, KPC-2). The following applies: for MIC: Pseudomonas aeruginosa, read-out: Antibacterial activity, MIC, inhibitor Alone. As for the experimental part:
as §1, §2

Where [11] appears, read: strain 8 (OXA-24), inhibitor at constant 4 mg/L.
[12] abbreviates: strain 7 (OXA-23/40), compound alone, no antibiotic.
The mark [13] stands for this setting: strain 7 (OXA-23/40), inhibitor at constant 4 mg/L.
Setting [14] is: strain 6 (AmpC), compound alone, no antibiotic.
Setting [15] is: strain 6 (AmpC), inhibitor at constant 4 mg/L.
Setting [16] is: strain 5 (P99), compound alone, no antibiotic.
[17] abbreviates: strain 5 (P99), inhibitor at constant 4 mg/L.
Where [18] appears, read: strain 1 (TEM-1), compound alone, no antibiotic.
[19] abbreviates: strain 1 (TEM-1), inhibitor at constant 4 mg/L.
Where [20] appears, read: strain 4 (KPC-3, TEM-1), compound alone, no antibiotic.
Where [21] appears, read: strain 4 (KPC-3, TEM-1), inhibitor at constant 4 mg/L.
Setting [22] is: strain 3 (SHV-1), compound alone, no antibiotic.
The mark [23] stands for this setting: strain 3 (SHV-1), inhibitor at constant 4 mg/L.
Setting [24] is: strain 10 (AmpC), compound alone, no antibiotic.
Where [25] appears, read: strain 10 (AmpC), inhibitor at constant 4 mg/L.
[26] abbreviates: strain 9 (KPC-2), compound alone, no antibiotic.
Where [27] appears, read: strain 9 (KPC-2), inhibitor at constant 4 mg/L.

Consider `N=C(NS(=O)(=O)CC(F)(F)F)[C@@H]1CC[C@@H]2CN1C(=O)N2OS(=O)(=O)[O-].[Na+]` [Ex. 1, Sodium (2S,5R)-7-oxo-2-(N-((2,2,2-trifluoroethyl)sulfonyl)caramimidoyl)-1,6-diazabicyclo[3.2.1]octan-6-yl sulfate], for which the “Antibacterial activity, MIC, inhibitor Alone” value was more than 64 µg/mL in assay [1] (strain 8 (OXA-24), compound alone, no antibiotic); more than 64 µg/mL in assay [2] (setting [12]); more than 64 µg/mL in assay [3] (setting [14]); more than 64 µg/mL in assay [4] (setting [16]); more than 64 µg/mL in [5] (strain 2 (CTX-M15), compound alone, no antibiotic); more than 64 µg/mL in [6] (setting [18]). Further, the “Antibacterial activity, MIC, inhibitor Alone” value in [7] (setting [20]), in assay [8] (setting [22]), in assay [9] (setting [24]) and in [10] (setting [26]) was more than 64 µg/mL each time. Also, the “MIC of imipenem in combination with the inhibitor (IMI + inhibitor)” value was 0.062 µg/mL in assay [1] (setting [11]); 0.0625 µg/mL in assay [2] (setting [13]); 0.0625 µg/mL in assay [3] (setting [15]); 1 µg/mL in [4] (setting [17]); 0.125 µg/mL in assay [6] (setting [19]); 0.25 µg/mL in assay [7] (setting [21]). Moreover, the “MIC of imipenem in combination with the inhibitor (IMI + inhibitor)” value came out at 0.25 µg/mL in assay [8] (setting [23]), 0.5 µg/mL in assay [9] (setting [25]) and 0.25 µg/mL in assay [10] (setting [27]). In addition, the “MIC of meropenem in combination with the inhibitor (MER + inhibitor)” value in assay [1] (setting [11]) is 0.5 µg/mL; in assay [2] (setting [13]), less than 0.125 µg/mL; in assay [3] (setting [15]) it was less than 0.125 µg/mL; in [4] (setting [17]) it was less than 0.125 µg/mL; in assay [6] (setting [19]) it was less than 0.125 µg/mL; in [7] (setting [21]), less than 0.125 µg/mL. The “MIC of meropenem in combination with the inhibitor (MER + inhibitor)” value in assay [8] (setting [23]), in assay [9] (setting [25]) and in assay [10] (setting [27]) was 0.125 µg/mL throughout.

Broadly, the MIC is the lowest concentration found to suppress growth. As to `COCCS(=O)(=O)NC(=N)[C@@H]1CC[C@@H]2CN1C(=O)N2OS(=O)(=O)[O-].[Na+]` [Ex. 3, Sodium (2S,5R)-2-(N-((2-methoxyethyl)sulfonyl)carbamimidoyl)-7-oxo-1,6-diazabicyclo[3.2.1]octan-6-yl sulfate], the MIC in assay [1], in assay [2] (setting [12]), in assay [3] (setting [14]), in assay [4] (setting [16]), in assay [5] and in assay [6] (setting [18]) was more than 64 µg/mL each time. Besides, the MIC in [7] (setting [20]), in assay [8] (setting [22]), in [9] (setting [24]) and in [10] (setting [26]) was more than 64 µg/mL throughout.

Turning to `COC(=O)CCS(=O)(=O)NC(=N)[C@@H]1CC[C@@H]2CN1C(=O)N2OS(=O)(=O)[O-].[Na+]` [Ex. 4, Sodium (2S,5R)-2-(N-((3-methoxy-3-oxopropyl)sulfonyl)carbamimidoyl)-7-oxo-1,6-diazabicyclo[3.2.1]octan-6-ylsulfate], the MIC in assay [1], in assay [2], in assay [3], in [4], in assay [5] and in assay [6] was more than 64 µg/mL each time. Moreover, the minimum inhibitory concentration (MIC) in assay [7], in assay [8], in [9] and in assay [10] was more than 64 µg/mL each time.

On to `CS(=O)(=O)NC(=N)[C@@H]1CC[C@@H]2CN1C(=O)N2OS(=O)(=O)[O-].[Na+]` [Ex. 5, Sodium (2S,5R)-2-(N-(methylsulfonyl)carbamimidoyl)-7-oxo-1,6-diazabicyclo[3.2.1]octan-6-yl sulfate], for which the minimum inhibitory concentration (MIC) in assay [1], in [2] (setting [12]), in [3] (setting [14]), in [4] (setting [16]), in assay [5] and in [6] (setting [18]) was more than 64 µg/mL each time. Also, the minimum inhibitory concentration (MIC) in [7] (setting [20]), in assay [8] (setting [22]), in assay [9] (setting [24]) and in assay [10] (setting [26]) was more than 64 µg/mL each time.

`N=C(NS(=O)(=O)C1CC1)[C@@H]1CC[C@@H]2CN1C(=O)N2OS(=O)(=O)[O-].[Na+]` [Ex. 6, Sodium (2S,5R)-2-(N-(cyclopropylsulfonyl)carbamimidoyl)-7-oxo-1,6-diazabicyclo[3.2.1]octan-6-yl sulfate]: the minimal inhibitory concentration (MIC) in assay [1], in assay [2] (setting [12]), in assay [3] (setting [14]), in assay [4] (setting [16]), in [5] and in assay [6] (setting [18]) was more than 64 µg/mL in each case. The MIC in assay [7] (setting [20]), in assay [8] (setting [22]), in assay [9] (setting [24]) and in assay [10] (setting [26]) was more than 64 µg/mL each time.

With `CCS(=O)(=O)NC(=N)[C@@H]1CC[C@@H]2CN1C(=O)N2OS(=O)(=O)[O-].[Na+]` [Ex. 8, Sodium (2S,5R)-2-(N-(ethylsulfonyl)carbamimidoyl)-7-oxo-1,6-diazabicyclo[3.2.1]octan-6-yl sulfate], the MIC in [1], in assay [2] (setting [12]), in assay [3] (setting [14]), in assay [4] (setting [16]), in assay [5] and in [6] (setting [18]) was more than 64 µg/mL in each case. In addition, the minimal inhibitory concentration (MIC) in assay [7] (setting [20]), in assay [8] (setting [22]), in assay [9] (setting [24]) and in [10] (setting [26]) was more than 64 µg/mL throughout.

Regarding `Cc1ccc(S(=O)(=O)NC(=N)[C@@H]2CC[C@@H]3CN2C(=O)N3OS(=O)(=O)[O-])cc1.[Na+]` [Ex. 9, Sodium (2S,5R)-7-oxo-2-(N-tosylcarbamimidoyl)-1,6-diazabicyclo[3.2.1]octan-6-yl sulfate], the minimal inhibitory concentration (MIC) in [1], in [2] (setting [12]), in [3] (setting [14]), in assay [4] (setting [16]), in [5] and in [6] (setting [18]) was more than 64 µg/mL each time. In addition, the minimum inhibitory concentration (MIC) in [7] (setting [20]), in [8] (setting [22]), in [9] (setting [24]) and in assay [10] (setting [26]) was more than 64 µg/mL each time.
